Entries after “also recorded” stand apart in the source; their conditions may differ.

The values below come from patent US20260242440A1, “NOVEL MEANS TO MODULATE NMDA RECEPTOR-MEDIATED TOXICITY” (FUNDAMENTAL PHARMA GMBH, priority 2018, published 2026).

One test deals with HEK293 cells. The experiment in a line: Luminescent cytotoxicity assay, HEK293 cells transfected with GRIN1 and GRIN2A or GRIN2B. The test is classed as cell-based, human. The conditions noted are these: compound added 6 h after transfection; cell death 48 h after transfection. The method, then:
HEK293 cells were cultured in Dulbecco's Modified Eagle Medium (DMEM, Gibco™ 41965-039) supplement with 10% Fetal Bovine Serum (FBS, Gibco™, 10270), 1% Sodium Pyruvate (Gibco™, 11360070), 1% MEM NEAA (GibcoT^M, 11140035) and 0.5% Penicillin-Streptomycin (P-S; Sigma, P0781) and Passagel5-25 were used for experiments.
To test the cytotoxicity of compounds according to the present invention, HEK293 cells (70-80% confluent) were transfected 24 hours after plating with both GRIN1 and GRIN2 Å or GRIN2B, respectively (1:[…]) with Lipofectamine 2000 according to manufacturer's instructions. The relative number of dead cells in the population at the indicated time points after transfection was measured with the CytoTox-Glo™ Cytotoxicity assay (Promega, G9290) according to manufacturer's instruction with minor modification. Briefly, 10% of total medium were mixed with 10 μL AAF-amino luciferin to reach a final volume at 200 μL with water, the dead cell relative luminescence units (DRLU) was measured by GloMax (Promega) in a 96 well white bottom polystyrene microplate (Corning Costar®, 3912). After all the measurements, lysis reagents have been added to the cells and 10% of lysate was used for the total cell relative luminescence units (TRLU) measurement. Cell death was calculated by the following equations: […]
For drug testing, P4, P8, P9, P13 and P15 were added to the medium at indicated concentration 6 h after transfection. DRLU, TRLU and cell death were measured and calculated 48 h after transfection.

A further test concerns NMDA receptor. The experiment in a line: NMDA-induced calcium transients (Fura2 calcium imaging). The test is classed as cell-based, mouse. The conditions noted are these: hippocampal neurons, 6 min NMDA (20 μM) application. The method, then:
In a further experiment, the impact of P4 and P15 on NMDA-induced calcium transients was assessed. Briefly, for calcium imaging, primary hippocampal neurons on coverslips were loaded with the cell-permeable, high-affinity ratiometric calcium indicator Fura2-AM (Invitrogen™ F1221), at 1 μM in CO2-independent culture medium (CICM; CICM contains: 10 mM HEPES, 140 mM NaCl, 2.5 mM KCl, 1.0 mM MgCl2, 2.0 mM CaCl2, 1.0 mM Glycine, 35.6 mM Glucose and 0.5 mM Na-pyruvate) for 30 min at 37° C., then washed and left in CICM for another 30 min to allow for de-esterification. Fura2 was excited at 340/11 nm and 380/11 nm, and fluorescence emission was obtained from a 40× UV compatible objective (LUMPLFLN, Olympus) through a 510/20 nm emission filter. For quantification, ImageJ was used to calculate average background-subtracted fluorescence intensities for 340 and 380 nm excitation (F340 and F380) from each neuron. Intracellular calcium levels were plotted as F340/F380 ratios over time, from which the NMDA response amplitude and area under the curve (AUC) was calculated to quantify NMDA-induced calcium influx.

Test [1] deals with retinal ganglion cells (RGCs). In words: NMDA-induced degeneration of retinal ganglion cells (RGCs) in mice. The test is classed as in vivo, mouse. The conditions noted are these: 40 mg/kg i.p. at -16h, -3h, 0 h, +24 h, intravitreal NMDA 20 nmol, 7 days. The method, then: The inventors also assessed, whether compound P4 can protect retinal ganglion cells against NMDA-induced degeneration. For this purpose, 28 C57BL/6J mice (25±3.5 g) were randomly allocated to two groups. All mice received vehicle (sunflower oil containing 5% ethanol) or P4 (40 mg/kg, dissolved in sunflower oil containing 5% ethanol) through intraperitoneal injection at −16h, −3h, 0 h, +3 h and +24 h in a volume of 50 μL each injection. At 0 h, mice received 20 nmol of NMDA (total volume 2.0 μL) by intravitreal injection in the left eye and saline (total volume 2.0 μL) in the right eye. Both eyes were removed from euthanized mice 7 days after intravitreal injections and fixed in formalin for 15 min before retinas were dissected and processed for whole mount immunostaining. Retinas were incubated in blocking solution (10% FBS, 1% Triton-X 100 in PBS) for 6 h, followed by 24 h incubation with anti-Brn3a antibody in blocking solution at 4° C. Retinas were washed 3 times with PBS and incubated with Donkey anti-rabbit Alexa Fluor-594 for 24 h at room temperature. Retinas were washed again, cut and mounted onto slides. […] Brn3a-positive cells were identified and counted with a macro in Cellprofiler. […]

Another test has as its system synaptic NMDA receptor. In words: Gabazine induced calcium influx into mitochondria (synaptic NMDA receptor signalling). The test is classed as cell-based, mouse. Particulars: primary cultured neurons, polypeptides expressed via rAAV. The method, then:
Gabazine induced mitochondrial Ca^2+ response in primary cultured neurons is recorded and analysed as described in a previous study (Qiu et al, Nat Commun. 2013; 4:2034, incorporated herewith by reference) using a FRET calcium indicator 4mtD3cpv that specifically located to mitochondria. Briefly, mitochondrial Ca^2+ levels were detected with FRET-based and mitochondrial targeted Ca^2+ indicator 4mtD3cpv. 4mtD3cpv were excited at 430±12 nm (CFP) and 500±10 nm (YFP), and emission of CFP (470±12 nm) and YFP (535±15 nm) were separated and filtered using a DualView beam splitter (AHF Analysentechnik and MAG Biosystems), and all fluorescence images were recorded through a 20× water-immersion objective at 1 Hz.
In a further experiment the inventors assessed the impact of the polypeptide comprising the sequence of SEQ ID NO:5 and SEQ ID NO: 54, respectively, on Gabazine induced calcium influx (mitochondria), a measure of synaptic NMDA receptor signalling. The experiment was carried out in primary cultured neurons as described above.

For the compound `CCN(CCN)Cc1cccc(Br)c1` [P4], the “NMDA receptor induced cell death” value in the test on HEK293 cells is on record as “reduced the level of NMDA receptor induced cell death”. Besides, in the test on NMDA receptor, the NMDA-induced calcium transients entry is “neither compound P4 nor compound P15 reduced; also recorded: neither compound P4 nor P15 reduced”. Also, the “retinal ganglion cell (RGC) degeneration (Brn3a-positive cells)” value in test [1] is “reduces retinal ganglion cell (RGC) degeneration”.
Turning to “SEQ ID NO:5: polypeptide, amino acid residues 633-689 of mouse TRPM4 (NSEERAARLLLRRCPLWGEATCLQLAMQADARAFFAQDGVQSLLTQKWWGEMDSTTP; listed as Mus musculus)”, in the test with synaptic NMDA receptor, the “Gabazine induced calcium influx into mitochondria” value is recorded as “neither of these polypeptides affects synaptic NMDA receptor signalling; also recorded: not affected”.
